# Reference: patent US20240270821A1, “GIP/GLP1/GCG TRI-RECEPTOR AGONISTS AND USES THEREOF” (priority 2023, published 2024)
# Where two headings read alike, the source gives them in different places. Starred links: 1 amine or outer side, 2 acyl side, 3 side chain; linkers in the order of their positions; H or OH if unused. Non-standard residues stand in square brackets, D forms with d. Residues, ends and D or L forms follow the SMILES beside them. Groups on a side chain read outwards from the residue. No end group written: not given here. *: point of attachment. C20 diacid = O=C(O)CCCCCCCCCCCCCCCCCCC(=O)*; C18 diacid = O=C(O)CCCCCCCCCCCCCCCCC(=O)*; αMePhe(2-F) = C[C@](N)(Cc1ccccc1F)C(=O)O; γGlu = O=C(O)[C@H](CCC(=O)[*:2])N[*:1]; αMe4Pal = C[C@](N)(Cc1ccncc1)C(=O)O; αMeY = C[C@](N)(Cc1ccc(O)cc1)C(=O)O; 4Pal = N[C@@H](Cc1ccncc1)C(=O)O; αMeL = CC(C)C[C@](C)(N)C(=O)O; αMeS = C[C@](N)(CO)C(=O)O; Orn = NCCC[C@H](N)C(=O)O; AEEA = NCCOCCOCC(=O)O; Aib = CC(C)(N)C(=O)O
# Columns and labels:
# Assay type in all cases: cell-based
# hGIPR [1] = molecular target: T1, hGIPR (Homo sapiens, UniProt P48546); experiment: Functional cAMP activity in the presence of 1% HSA; conditions: read-out: cAMP Rel EC50, hGIPR
# T1 sequence (P48546 22-466): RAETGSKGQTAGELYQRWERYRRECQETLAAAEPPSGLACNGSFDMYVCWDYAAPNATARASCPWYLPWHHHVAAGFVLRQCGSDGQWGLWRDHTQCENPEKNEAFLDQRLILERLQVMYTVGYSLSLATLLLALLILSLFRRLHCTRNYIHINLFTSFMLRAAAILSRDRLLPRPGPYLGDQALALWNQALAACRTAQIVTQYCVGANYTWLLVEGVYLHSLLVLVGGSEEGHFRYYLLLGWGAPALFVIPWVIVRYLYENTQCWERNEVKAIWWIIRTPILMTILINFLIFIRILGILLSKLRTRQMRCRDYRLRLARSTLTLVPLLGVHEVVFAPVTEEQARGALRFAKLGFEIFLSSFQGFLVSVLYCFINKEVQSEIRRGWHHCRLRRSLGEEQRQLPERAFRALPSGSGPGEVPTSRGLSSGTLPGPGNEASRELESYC
# hGcgR = hGcgR (Homo sapiens, UniProt P47871); experiment: Functional cAMP activation in the presence of 0.1% casein (no HSA); conditions: read-out: Relative cAMP EC50, hGcgR;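 note: intracellular cAMP rise after 30 min at 37 °C, read by HTRF against a cAMP standard curve, scaled from buffer only (0%) to maximal control ligand response (100%)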
# hGLP-1R [2] = molecular target: T2, hGLP-1R (Homo sapiens, UniProt P43220); experiment: as above; conditions: read-out: Relative cAMP EC50, hGLP-1R;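 note: intracellular cAMP rise after 30 min at 37 °C read by HTRF, normalized between buffer only (0%) and maximal control ligand (100%), four-parameter variable-slope fit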
# hGLP-1R [3] = molecular target: T2, hGLP-1R; experiment: Functional cAMP activity in the presence of 1% HSA; conditions: read-out: cAMP Rel EC50, hGLP-1R
# human GcgR = human GcgR (Homo sapiens, UniProt P47871); experiment: Functional cAMP activity in the presence of 1% HSA; conditions: read-out: cAMP Rel EC50, hGcgR
# hGIPR [4] = molecular target: T1, hGIPR; experiment: Functional cAMP activation in the presence of 0.1% casein (no HSA); conditions: read-out: Relative cAMP EC50, hGIPR;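 for Relative cAMP EC50, hGIPR: intracellular cAMP rise after 30 min at 37 °C read by HTRF against a standard curve, scaled between buffer alone (0%) and top control ligand concentration (100%), four-parameter fit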;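 for Relative cAMP EC50, hGLP-1R: intracellular cAMP rise after 30 min at 37 °C read by HTRF, normalized between buffer only (0%) and maximal control ligand (100%), four-parameter variable-slope fit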
# [5] = in the presence of 0.1% casein (no HSA), geometric mean
# [6] = HEK-293 clonal cell line, 1% HSA, geometric mean of relative EC50
# [7] = in the presence of 0.1% casein (no HSA), geometric mean of relative EC50
# [8] = 0.1% casein, no HSA, geometric mean
# T2 sequence (P43220 24-463): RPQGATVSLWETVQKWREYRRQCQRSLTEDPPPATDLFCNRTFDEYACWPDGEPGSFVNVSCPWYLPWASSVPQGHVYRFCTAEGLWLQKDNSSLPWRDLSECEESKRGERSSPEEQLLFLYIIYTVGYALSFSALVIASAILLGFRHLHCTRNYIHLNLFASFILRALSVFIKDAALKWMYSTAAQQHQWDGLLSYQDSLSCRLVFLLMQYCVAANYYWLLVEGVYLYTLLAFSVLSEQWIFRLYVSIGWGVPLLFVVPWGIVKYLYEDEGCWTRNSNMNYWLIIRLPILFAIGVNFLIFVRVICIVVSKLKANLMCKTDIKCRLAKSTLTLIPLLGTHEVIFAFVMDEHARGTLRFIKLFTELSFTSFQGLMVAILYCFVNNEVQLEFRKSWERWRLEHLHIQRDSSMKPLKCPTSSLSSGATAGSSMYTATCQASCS
# Chain of hGcgR (P47871 26-477): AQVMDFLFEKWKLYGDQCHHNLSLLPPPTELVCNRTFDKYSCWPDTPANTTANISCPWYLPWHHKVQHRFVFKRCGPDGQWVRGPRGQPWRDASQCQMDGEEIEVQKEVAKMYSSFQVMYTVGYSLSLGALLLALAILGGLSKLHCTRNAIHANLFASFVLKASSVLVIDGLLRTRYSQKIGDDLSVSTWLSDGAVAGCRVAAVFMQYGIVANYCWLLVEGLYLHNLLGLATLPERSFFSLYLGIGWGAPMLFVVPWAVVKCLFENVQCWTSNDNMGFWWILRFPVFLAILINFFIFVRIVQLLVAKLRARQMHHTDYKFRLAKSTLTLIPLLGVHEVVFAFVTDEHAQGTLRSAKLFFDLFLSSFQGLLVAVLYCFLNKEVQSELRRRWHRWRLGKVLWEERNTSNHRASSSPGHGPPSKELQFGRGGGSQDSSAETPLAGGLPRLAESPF
# Chain of human GcgR (P47871 26-477): as above
Molecule,EC50 (hGIPR [1]),EC50 (hGcgR; [5]),EC50 (hGLP-1R [2]; [5]),EC50 (hGLP-1R [3]),EC50 (human GcgR),EC50 (hGIPR [4]; [5]),further results
CC[C@H](C)[C@H](NC(=O)[C@H](Cc1ccccc1)NC(=O)[C@H](CCCN)NC(=O)C(C)(C)NC(=O)[C@H](CCC(N)=O)NC(=O)[C@H](C)NC(=O)[C@H](CCCCNC(=O)COCCOCCNC(=O)CC[C@H](NC(=O)CCCCCCCCCCCCCCCCC(=O)O)C(=O)O)NC(=O)[C@H](CCCN)NC(=O)[C@H](CC(=O)O)NC(=O)[C@H](CC(C)C)NC(=O)[C@](C)(CC(C)C)NC(=O)[C@@H](NC(=O)[C@H](CO)NC(=O)[C@H](Cc1ccncc1)NC(=O)[C@H](CC(=O)O)NC(=O)[C@H](CO)NC(=O)[C@@H](NC(=O)[C@](C)(Cc1ccccc1F)NC(=O)[C@@H](NC(=O)CNC(=O)[C@H](CCC(N)=O)NC(=O)C(C)(C)NC(=O)[C@@H](N)Cc1ccc(O)cc1)[C@@H](C)O)[C@@H](C)O)[C@@H](C)CC)C(=O)N[C@H](CCC(=O)O)C(=O)N[C@@](C)(Cc1ccc(O)cc1)C(=O)N[C@@H](CC(C)C)C(=O)N[C@@H](CC(C)C)C(=O)N[C@@H](CCC(=O)O)C(=O)NCC(=O)NCC(=O)N1CCC[C@H]1C(=O)N[C@@H](CO)C(=O)N[C@@H](CO)C(=O)NCC(=O)N[C@@H](CCC(=O)O)C(=O)N1CCC[C@H]1C(=O)N1CCC[C@H]1C(=O)N1CCC[C@H]1C(=O)N[C@@H](CCC(=O)O)C(N)=O [Example 370] (H-Y[Aib]QGT[αMePhe(2-F)]TSD[4Pal]SI[αMeL]LD[Orn]K([AEEA-γGlu-C18 diacid])AQ[Aib][Orn]FI[dE][αMeY]LLEGGPSSGEPPPE-NH2),4.23 nM,7.06 nM,0.406 nM,37.5 nM,803 nM,0.027 nM,
H-Y[Aib]QGT[αMePhe(2-F)]TSD[4Pal][αMeS]ILLD[Orn]K([γGlu-γGlu-C18 diacid])AQ[Aib][Orn]FI[dE]YLIEGGPSSGEPPPEGTEE-NH2 [Example 556],5.51 nM,,,47.4 nM,366 nM,,EC50 (hGcgR): 4.14 nM; EC50 (hGLP-1R [2]): 0.561 nM; EC50 (hGIPR [4]): 0.0866 nM
H-Y[Aib]QGT[αMePhe(2-F)]TSDYSI[αMeL]LDKK([AEEA-γGlu-C18 diacid])AQ[Aib]AFIEYLLETGPSSGAPPPSEG-NH2 [Example 417],,,,,,,EC50 (hGIPR [1]; [6]): 4.46 nM; EC50 (hGcgR; [7]): 2.83 nM; EC50 (hGLP-1R [2]; [7]): 0.328 nM; EC50 (hGLP-1R [3]; [6]): 67 nM; EC50 (human GcgR; [6]): 386 nM; EC50 (hGIPR [4]; [7]): 0.0144 nM
CC[C@H](C)[C@H](NC(=O)[C@H](CO)NC(=O)[C@H](Cc1ccc(O)cc1)NC(=O)[C@H](CC(=O)O)NC(=O)[C@H](CO)NC(=O)[C@@H](NC(=O)[C@](C)(Cc1ccccc1)NC(=O)[C@@H](NC(=O)CNC(=O)[C@H](CCC(N)=O)NC(=O)C(C)(C)NC(=O)[C@@H](N)Cc1ccc(O)cc1)[C@@H](C)O)[C@@H](C)O)C(=O)N[C@@H](CC(C)C)C(=O)N[C@@H](CC(C)C)C(=O)N[C@@H](CC(=O)O)C(=O)N[C@@H](CCCCN)C(=O)N[C@@H](CCCCNC(=O)COCCOCCNC(=O)COCCOCCNC(=O)CC[C@H](NC(=O)CCCCCCCCCCCCCCCCC(=O)O)C(=O)O)C(=O)N[C@@H](C)C(=O)N[C@@H](CCC(N)=O)C(=O)NC(C)(C)C(=O)N[C@@H](C)C(=O)N[C@@H](Cc1ccccc1)C(=O)N[C@H](C(=O)N[C@H](CCC(=O)O)C(=O)N[C@@H](Cc1ccc(O)cc1)C(=O)N[C@@H](CC(C)C)C(=O)N[C@@H](CC(C)C)C(=O)N[C@@H](CCC(=O)O)C(=O)NCC(=O)NCC(=O)N1CCC[C@H]1C(=O)N[C@@H](CO)C(=O)N[C@@H](CO)C(=O)NCC(=O)N[C@@H](C)C(=O)N1CCC[C@H]1C(=O)N1CCC[C@H]1C(=O)N1CCC[C@H]1C(=O)N[C@@H](CO)C(N)=O)[C@@H](C)CC [Example 419],9.47 nM,,,65.5 nM,1650 nM,,EC50 (hGcgR): 8.52 nM; EC50 (hGLP-1R [2]): 0.615 nM; EC50 (hGIPR [4]): 0.0235 nM
Y[Aib]QGT[αMePhe(2-F)]TSD[4Pal][αMeS]I[αMeL]LD[Orn]K([AEEA-γGlu-C18 diacid])AQ[αMe4Pal]EFI[dQ][αMeY]LIEGGPSSGAPPPSGS-NH2 [Example 1202],0.471 nM,,,23.1 nM,70.3 nM,,EC50 (hGcgR; [8]): 0.5 nM; EC50 (hGLP-1R [2]; [8]): 0.237 nM; EC50 (hGIPR [4]; [8]): 0.00635 nM
H-Y[Aib]QGTFTSD[4Pal]SQ[αMeL]LDKK([γGlu-γGlu-C18 diacid])AQ[Aib]AFIE[αMeY]LLEGGPSSGAPPPSGSEE-NH2 [Example 945],42.5 nM,18 nM,3.9 nM,555 nM,2420 nM,0.246 nM,
H-Y[Aib]QGTFTSDFS[Orn][αMeL]LDKK([AEEA-γGlu-C20 diacid])AQ[Aib]AFIEYLLAGGPSSGAPPPSEG-NH2 [Example 60],33 nM,8.96 nM,1.93 nM,409 nM,1210 nM,0.135 nM,
H-Y[Aib]QGT[αMePhe(2-F)]TSD[4Pal][αMeS]I[αMeL]LD[Orn]K([AEEA-γGlu-C18 diacid])AQ[αMe4Pal]EFI[dE][αMeY]LIEGGPPS[Aib][Orn]PPP[Orn]GS-NH2 [Example 1189],0.584 nM,1.59 nM,0.292 nM,45.4 nM,248 nM,0.00597 nM,
H-Y[Aib]QGTFTSD[4Pal]SQ[αMeL]LDKK([dE-dE-γGlu-C18 diacid])AQ[αMe4Pal]AFIEYLIE[Aib]GPSSGAPPPSGS-NH2 [Example 921],12.4 nM,10.4 nM,3.73 nM,261 nM,2130 nM,0.228 nM,
H-Y[Aib]QGTFTSD[4Pal]SQ[αMeL]LDKK([γGlu-γGlu-γGlu-C18 diacid])AQ[αMe4Pal]AFIEYLIE[Aib]GPSSGAPPPSGS-NH2 [Example 859],32.3 nM,8.45 nM,2.38 nM,543 nM,2250 nM,0.12 nM,
H-Y[Aib]QGTFTSD[4Pal]SQ[αMeL]LDKK([AEEA-γGlu-C18 diacid])AQ[αMe4Pal]QFIE[αMeY]LIEGGPSSGAPPPSGS-NH2 [Example 855],46.1 nM,2.67 nM,0.908 nM,207 nM,1030 nM,0.271 nM,
H-Y[Aib]QGTFTSDFS[Orn][αMeL]LDKK([AEEA-γGlu-C18 diacid])AQ[Aib]AFIEYLLE[dA]GHSSGAPPPSGE-NH2 [Example 207],15.2 nM,4.24 nM,4.36 nM,225 nM,770 nM,0.321 nM,
H-Y[Aib]QGTFTSD[4Pal]SQ[αMeL]LDKK([AEEA-γGlu-C18 diacid])AQ[αMe4Pal]AFIE[αMe4Pal]LIEGGPSSGAPPPSGSEE-NH2 [Example 954],35.3 nM,3.66 nM,4.79 nM,357 nM,450 nM,0.268 nM,
H-Y[Aib]QGT[αMePhe(2-F)]TSD[4Pal][αMeS]I[αMeL]LD[Orn]K([AEEA-γGlu-C18 diacid])AQ[αMe4Pal]EFI[dE][αMeY]LIEGGPPS[Aib][Orn]PPP[Orn]GE-NH2 [Example 1195],0.637 nM,,,44.2 nM,242 nM,,EC50 (hGcgR; [8]): 1.74 nM; EC50 (hGLP-1R [2]; [8]): 0.367 nM; EC50 (hGIPR [4]; [8]): 0.00708 nM
